Data published in patent US11672828B2, “Cellular receptors and uses thereof” (TRUSTEES OF BOSTON UNIVERSITY, priority 2020, dated 2023).
Entries after “also recorded” stand apart in the source; their conditions may differ.

Legend:
anti-Biotin ligand = assay: Coculture luciferase assay, apSyN/BirA receiver cells with anti-Biotin ligand sender cells, soluble competitors; format: cell-based; details: different concentrations of the molecules in coculture
Experimental: To examine this behavior more quantitatively, we used an established luciferase-based coculture assay28. Receptor cells were transfected with a luciferase reporter plasmid, and ligand expressing cells were added the next day. Finally cells were lysed after one day of coculturing to examine the luminescence due to luciferase expression (FIG. 3C).
We also saw a similar ability to control activation with small molecules in this coculture assay. […] We sought to develop an inhibition method that is specific for this pathway and therefore allow for additional control of signaling without disrupting native pathways. […] We used the previously established coculture assay while culturing cells in different concentrations of the described molecules and then analyzed the corresponding luciferase expression.
(§1) The luciferase assay used for coculture studies was adapted from Gordon et al28. Synthetic Notch receiver cells were reverse transfected in a 96-well plate (50 k cells per well) with 9.9 ng of UAS:Firefly-Luciferase plasmid and 0.1 ng Nanoluc plasmid per well. 24 hr post-transfection, 80 k sender cells were added to each well. 48 hr post-transfection, cells were lysed (Nano-Glo Dual-Luciferase Reporter Assay System, Promega) and the luminescence was found following the manufacturer's instructions. Each well was normalized to the luminescence output of Nanoluc (transfection control).
Tight-regulation is a requirement of cell-engineered systems in biomedical applications, and such control can be achieved by combining genetic strategies with external drug-control. Thus, it was next sought to design exogenous molecules that could be combined with the present encodable components in order to achieve versatile “chemogenetic” control. Soluble binding proteins can be used to block trans-cellular interactions between endogenous Notch receptors and ligands. It was tested whether soluble biotin-derived compounds could be used to competitively interact between our synthetic ligand and receptor (FIG. 12G). […] In addition to their selective recognition by Anti-Biotinamide, the cell-impermeant nature of biocytin and bis-biotinamide offer the advantageous feature of limiting disruption/inhibition to cell-surface presented components.
as §1, with “al^59.” for “al28.”, “24 hr post-transfection, 80 k sender cells were added to each well.” left out, “(Nano-Go” for “(Nano-Glo”

antiBiot synthetic Notch = assay: Plated ligand assay, antiBiot synthetic Notch (Anti-Biotinamide SynNotch) cells; details: soluble ligand introduced at the time of plating
Experimental: We first asked if this synthetic receptor cell line could activate to various ligands coated on a 96 well plate.
Nontreated 96-well plates were coated with Fibronectin (5 ng/mL) and plated ligand in 50 μL PBS for 1-hr. Initial experiments were done with a serial dilution of ligand to determine working concentrations. The wells were rinsed three times with 200 μL PBS, and 40 k synthetic Notch receiver cells were plated in each well. Receptor activation was measured 24 hr post-plating via fluorescence microscopy or flow cytometry.
Cells analyzed with an Attune NxT flow cytometer and were gated for living cells by scatter detection. The percent activation was determined by calculating the percentage of cells with mCherry expression levels above a certain threshold.
Nontreated 96-well plates were coated with Fibronectin (5 ng/mL) and plated ligand in 50 μL PBS for 1 hr. […] Receptor activation was measured 24 hr post-plating via fluorescence microscopy or flow cytometry.
Flow Cytometry Cells analyzed with an Attune NxT flow cytometer and were gated for single cells by scatter detection (FIGS. 19A-19C). Output files were analyzed with a custom MATLAB (Mathworks) script. The percent activation was determined by calculating the percentage of cells with mCherry expression levels above a determined threshold using the non-transfected control as a guide.

apSyN = assay: Plated ligand assay, apSyN (AP-SynNotch) cells with UAS:H2B-mCherry reporter; format: cell-based; details: for reporter (mCherry) activation by plated ligand: apSyN/AP-SynNotch cells with or without BirA-ER (BirA-KDEL)
Description: In order to determine if the apSyN could undergo predicted signaling mechanics of extracellular binding and intracellular domain release based on the presence of the PTM, we used an established Notch signaling assay23 (FIG. 2A). […] We instead interrogated the signaling capabilities by coating tissue culture wells with an anti-Biotin antibody that is specific for biotinamide24.
Next to be evaluated were the signaling properties of AP-SynNotch. Here, the activity of the receptor in response to different ligands was compared in cells with and without BirA-KDEL. Using a receptor containing a Gal4-VP64 ICD, the signaling activity of AP-SynNotch was measured in transfected HEK293 cells containing a stably-integrated reporter gene (UAS:H2B-mCherry). In order to stimulate receptor activation, transfected cells were grown on culture surfaces containing immobilized ligands, and reporter expression levels were measured the next day using flow cytometry (FIG. 11D).

[1] = test system: Anti-Biotinamide SynNotch; assay: Anti-Biotinamide SynNotch cells on TCO-BSA coated wells with added biotin-tetrazine, flow cytometry; format: cell-based
Description: (FIG. 13A). Receptors that are specific to biotinamide process inputs dependent on the biotinylation state of the ligand. (FIG. 13B). Anti-Biotinamide SynNotch expressing cells activate to both biotin-based and desthiobiotin-based substrates. The cells activate with slightly less adsorbed biotin than desthiobiotin. (FIG. 13C). Cells expressing Anti-Biotinamide SynNotch were cocultured with cells transfected with an AP-tagged cell surface ligand with or without BirA, or non-transfected cells. (FIG. 13D). Biotin-tetrazine (4) is a bispecific molecule that will bind to the Anti-Biotinamide antibody fragment and TCO-(5), which is conjugated to BSA. (FIG. 13E). Anti-Biotinamide SynNotch expressing cells cultured on TCO-conjugated BSA will bind to exogenously added biotin-tetrazine. (FIG. 13F). Anti-Biotinamide SynNotch expressing cells were cultured on wells coated with TCO-BSA and one day later, biotin-tetrazine was added at different concentrations to the wells. At two days after plating, cellular fluorescence was analyzed with flow cytometry.
In an effort to develop synthetic agonists, a bioorthogonal chemical ligation was also exploited in order to convert a soluble biotin derivative into an immobilized (signaling competent) ligand in situ. […]

[2] = test system: anti-FITC Synthetic Notch; assay: Coculture of anti-FITC Synthetic Notch cells and anti-biotin ligand cells with biotin-FITC linker (Luciferase reporter); format: cell-based; details: FIG. 20
Description: FIG. 20 depicts graphs in which the x-axis of the plot is the biotin-FTC concentration, the y-axis is the extent of signaling (via a Luciferase reporter). The legend gives two different sender-cells used in the coculture—one with the anti-biotin ligand, and one without.
Described herein is the use of biotin-FITC as a small-molecule linker with the ability to induce trans-cellular signaling. In this coculture system, a first group of cells expressed an anti-FITC Synthetic Notch, which can bind one end of the biotin-FITC, and a second group of cells expressed an anti-biotin ligand (described in other Examples herein), which binds the other end.

scFab-Gal4 and AP-VP64 = assay: UAS:H2B-mCherry reporter cells with scFab-Gal4, AP-VP64 and BirA, treated with soluble biotinamides; format: cell-based; details: varying concentrations, compared with biocytin
Experimental: Reporter HEK293 cells with an integrated UAS:H2B-mCherry construct were transfected with a construct containing constitutive expression of AP-VP64 and AntiBiotinamide-scFAB-Gal4. The cells were cotransfected with a construct containing Citrine-HA-BirA. At the time of transfection, samples were incubated with different concentrations of Biocytin and Biotin-cadaverine. Samples were measured the next day with flow cytometry, gating for Citrine expression.
Lastly, it was asked whether intracellular protein complexes could be disrupted using exogenously applied biotinamide. To test this possibility, cells were treated with biocytin as well as biotin-cadaverine, a membrane-permeant biotinamide derivative (6). To measure the disruption of intracellular complexes, BirA was co-expressed alongside scFab-Gal4 and AP-VP64 in UAS:H2B-mCherry reporter cells, and the extent of mCherry expression was quantified from cells treated with varying concentrations of biocytin and biotin-cadaverine (FIG. 18A).

avidin = details: avidin-based systems; cited from earlier work
[3] = free biotin versus biotin with an amide linker; cited from earlier work

With `N[C@@H](CCCCNC(=O)CCCC[C@@H]1SC[C@@H]2NC(=O)N[C@@H]21)C(=O)O` [biocytin] the “inhibition of cell signaling (luciferase) by competitive binding to the ligand” value (from here on “inhibition of cell signaling”) (anti-Biotin ligand) was “able to inhibit cell signaling to some degree; also recorded: act as inhibitors of signaling” and the “concentration at which activation was lowered” value (antiBiot synthetic Notch) was 3 µM.

In the case of `C[C@H](NC(=O)Cc1cc(F)cc(F)c1)C(=O)N[C@H](C(=O)OC(C)(C)C)c1ccccc1` [DAPT], the “effect of Notch pathway (γ-secretase) inhibitor on mCherry expression” value (apSyN; plated anti-Biotin or anti-myc antibody) is reported as “ablated mCherry expression in all cases”.

In the case of biotin-tetrazine, the reporter activation ([1]; biotin-tetrazine added one day after plating on TCO-BSA) is reported as “able to activate reporter expression only when cultured with biotin-tetrazine” and the “inhibition of receptor activation” value ([1]; high concentrations of biotin-tetrazine) is reported as “inhibited with high concentrations”.

For bis-biotinamide, the “inhibition of cell signaling” value (anti-Biotin ligand) was “more potent inhibition” and the “inhibition of cell signaling” value (anti-Biotin ligand; listed as Bis-biotinamide) was “increased ability to inhibit cell activation; also recorded: inhibits more effectively”.

For `O=C(O)CCCC[C@@H]1SC[C@@H]2NC(=O)N[C@@H]21` [biotin], the “inhibition of cell signaling” value (anti-Biotin ligand) was “limited impact on cell signaling”.

With “Neutravidin: adsorbed biotin-binding protein” the “reporter (mCherry) activation by plated ligand” value (apSyN) was “able to activate apSyN cells, but has decreased activation at higher concentrations” and the “reporter (mCherry) activation by plated ligand” value (apSyN; listed as neutravidin) was “can activate the biotinylated receptor”.

In the case of biotin-FITC, the “signaling capacity versus concentration” value [2] is reported as “low concentrations do not induce signaling, and high concentrations lead to lower signaling”.

With biotin-cadaverine the “inhibition of intracellular biotin-dependent reporter (mCherry) expression” value (scFab-Gal4 and AP-VP64) was “more sensitive” and the “inhibition of intracellular biotin-dependent reporter (mCherry) expression” value (scFab-Gal4 and AP-VP64; listed as Biotin-cadaverine) was “effective competitive inhibitor”.

In the case of `C[C@@H]1NC(=O)N[C@@H]1CCCCCC(=O)O` [desthiobiotin], the “binding constant, fold less than biotin” value (avidin) is given as 106 fold.

B1: biotinamide-specific antibody: antibody from which the anti-biotinamide single chain variable fragment was developed (antibody)
heavy: EVQLQQSGAELVKPGASVKLSCTSSGFNNKDTFFQWVKQRPEEGLEWIGRIDPANGFTKYDPKFQGKATITVDTSSNTAYLQLNSLTSEDTALYYCTRWDTYGAAWFAYWGQGTLVTVSAAKTTPPSVYPLAPGSAAQTNSMVTLGCLVKGYFPEPVTVTWNSGSLSSGVHTFPAVLQSDLYTLSSSVTVPSSTWPSETVTCNVAHPASSTKVDKKIVPR
light: DIQMTQSPASLSASVGETVTITCRASGNIHNYLSWFQQKQGKSPQLLVYSAKTLADGVPSRFSGSGSGTQYSLKINSLQPEDFGTYYCQHFWSSIYTFGGGTKLEIKRADAAPTVSIFPPSSEQLTSGGASVVCFLNNFYPKDINVKWKIDGSERQNGVLNSWTDQDSKDSTYSMSSTLTLTKDEYERHNSYTCEATHKTSTSPIVKSFNRNEC
In the case of B1, the binding specificity [3] is listed as “does not bind to free biotin but binds to biotin with an amide linker”.
